Reference: patent US12448388B2, “PRMT5 inhibitors and uses thereof” (Gilead Sciences, Inc., priority 2023, dated 2025)
Read-outs that look alike come from different tables or passages of the source.

Test system: HCT116 MTAP-deleted cell lines
Experiment: Cell viability assay (CellTiter-Glo, 7 days), HCT116 MTAP-deleted
Type: cell-based
Conditions: Homo sapiens, HCT-116, HCT116 MTAP-deleted, class symbols, read-out: CC50
In short: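 HCT116 MTAP-deleted and wild-type cells exposed to serially diluted compound for 7 days at 37 °C, 5% CO2. Viability read by CellTiter-Glo luminescence; CC50 derived per line, with selectivity comparing WT to MTAP-deleted, limited solubility can inflate values marked *.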

Cc1ncn2c1c(N)nc1cnc(C(=O)N(C)C3CCc4cc(C(F)(F)F)ccc43)cc12 (stereo not shown) [Ff-435, 7-amino-N,5-dimethyl-N-[5-(trifluoromethyl)indan-1-yl]-2,4,8,11-tetrazatricyclo[7.4.0.02,6]trideca-1(13),3,5,7,9,11-hexaene-12-carboxamide]
CC50 (cell viability assay): 100 to 1000 nM

Nc1nc2cc(F)c(C(=O)N3CCO[C@@H]4CCc5ccccc5[C@@H]43)cc2n2cncc12 (relative stereo) [Ff-427, cis-2,3,4a,5,6,10b-hexahydrobenzo[f][1,4]benzoxazin-1-yl-(4-amino-7-fluoro-imidazo[1,5-a]quinoxalin-8-yl)methanone]
CC50 (cell viability assay): 100 to 1000 nM

CN(C(=O)c1cc2c(cc1F)nc(N)c1cncn12)[C@@H]1COCc2cc(-c3cnn(C(F)F)c3)ccc21 [Ff-292, (S)-4-amino-7-fluoro-N-methyl-N-(7-(1-(difluoromethyl)-1H-pyrazol-4-yl)isochroman-4-yl)imidazo[1,5-a]quinoxaline-8-carboxamide]
CC50 (cell viability): < 100 nM

C[C@@H]1CN(C(=O)c2cc3c(cn2)nc(N)c2cncn23)[C@H]2c3ccc(OC(F)(F)F)cc3C[C@H]2O1 (single isomer, unassigned) [Ff-185]
CC50 (cell viability): < 100 nM

CN(C(=O)c1ccc2nc(N)c3cncn3c2c1)C1CCc2nc(Cl)sc21 (stereo not shown) [Ff-15, 4-amino-N-(2-chloro-5,6-dihydro-4H-cyclopenta[d]thiazol-6-yl)-N-methylimidazo[1,5-a]quinoxaline-8-carboxamide]
CC50 (cell viability): > 1000 nM

CN(C(=O)c1cc2c(cc1F)nc(N)c1cncn12)C1CCc2sccc21 (stereo not shown) [Ff-426, 4-amino-N-(5,6-dihydro-4H-cyclopenta[b]thiophen-4-yl)-7-fluoro-N-methyl-imidazo[1,5-a]quinoxaline-8-carboxamide]
CC50 (cell viability assay): 100 to 1000 nM

Nc1nc2ccc(C(=O)N3C[C@@H](F)C[C@@H]4Oc5cc(C(F)(F)F)ccc5[C@@H]43)cc2n2cncc12 [Ff-649, (4-aminoimidazo[1,5-a]quinoxalin-8-yl)((3S,4aS,9bS)-3-fluoro-7-(trifluoromethyl)-3,4,4a,9b-tetrahydrobenzofuro[3,2-b]pyridin-1(2H)-yl)methanone]
CC50 (cell viability assay): < 100 nM

Nc1nc2cc(F)c(C(=O)N3CCC[C@@H]4Cc5cc(C(F)(F)F)ccc5[C@@H]43)cc2n2cncc12 (racemic) [Ff-310, Rac-(4-amino-7-fluoroimidazo[1,5-a]quinoxalin-8-yl)((4aR,9bR)-7-(trifluoromethyl)-2,3,4,4a,5,9b-hexahydro-1H-indeno[1,2-b]pyridin-1-yl)methanone]
CC50 (cell viability): < 100 nM

C[C@H]1CN(C(=O)c2cc3c(cn2)nc(N)c2cncn23)[C@H]2c3cc(F)c(C(F)(F)F)cc3C[C@H]2O1 [Ff-247, (4-aminoimidazo[1,5-a]pyrido[3,4-e]pyrazin-8-yl)((2S,4aS,9aR)-6-fluoro-2-methyl-7-(trifluoromethyl)-2,3,9,9a-tetrahydroindeno[2,1-b][1,4]oxazin-4(4aH)-yl)methanone]
CC50 (cell viability): < 100 nM

Nc1nc2cc(F)c(C(=O)N3CC(F)(F)CCC3c3ccc(C(F)(F)F)cn3)cc2n2cncc12 (stereo not shown) [Ff-222, (4-amino-7-fluoroimidazo[1,5-a]quinoxalin-8-yl)(5,5-difluoro-2-(5-(trifluoromethyl)pyridin-2-yl)piperidin-1-yl)methanone]
CC50 (cell viability): < 100 nM

Nc1nc2cc(F)c(C(=O)N(Cc3ccc(C(F)(F)F)cc3F)c3cnn4c3CCC4)cc2n2cncc12 [Ff-285, 4-amino-N-(5,6-dihydro-4H-pyrrolo[1,2-b]pyrazol-3-yl)-7-fluoro-N-(2-fluoro-4-(trifluoromethyl)benzyl)imidazo[1,5-a]quinoxaline-8-carboxamide]
CC50 (cell viability): < 100 nM

Nc1nc2cc(Cl)c(C(=O)N3CC[C@H]4C[C@@H]3c3ccc(C(F)(F)F)nc3O4)cc2n2cncc12 [Ff-371, (4-amino-7-chloroimidazo[1,5-a]quinoxalin-8-yl)((2S,6R)-9-(trifluoromethyl)-3,4-dihydro-2H-2,6-methanopyrido[2,3-b][1,5]oxazocin-5(6H)-yl)methanone]
CC50 (cell viability assay): < 100 nM

Nc1nc2cc(F)c(C(=O)N3CCC[C@@H]4Oc5nc(C(F)(F)F)ccc5[C@@H]43)cc2n2cncc12 [Ff-361, (4-amino-7-fluoroimidazo[1,5-a]quinoxalin-8-yl)((4aS,9bS)-7-(trifluoromethyl)-3,4,4a,9b-tetrahydrofuro[2,3-b:4,5-b′]dipyridin-1(2H)-yl)methanone]
CC50 (cell viability): < 100 nM

Cc1ncn2c1c(N)nc1cnc(C(=O)N3CCC[C@@H]4Oc5cc(OC(F)(F)F)ccc5[C@@H]43)cc12 [Fg-30, (4-amino-3-methylimidazo[1,5-a]pyrido[3,4-e]pyrazin-8-yl)((4aS,9bS)-7-(trifluoromethoxy)-3,4,4a,9b-tetrahydrobenzofuro[3,2-b]pyridin-1(2H)-yl)methanone]
CC50 (cell viability assay): < 100 nM

C[C@@H]1COC[C@H](c2ccc(C(F)(F)F)cn2)N1C(=O)c1cc2c(cc1F)nc(N)c1cncn12 [Ff-131, (4-amino-7-fluoroimidazo[1,5-a]quinoxalin-8-yl)((3R,5S)-3-methyl-5-(5-(trifluoromethyl)pyridin-2-yl)morpholino)methanone]
CC50 (cell viability): < 100 nM

CN(C(=O)c1cc2c(cc1Cl)nc(N)c1cncn12)[C@@H]1COCc2nc(C(F)(F)F)ccc21 [Ff-308, (S)-4-amino-7-chloro-N-methyl-N-(2-(trifluoromethyl)-5,8-dihydro-6H-pyrano[3,4-b]pyridin-5-yl)imidazo[1,5-a]quinoxaline-8-carboxamide]
CC50 (cell viability): < 100 nM

Cc1ncc2c(N)nc3cnc(C(=O)N4CCO[C@@H]5Cc6cc(OC(F)(F)F)c(F)cc6[C@@H]54)cc3n12 [Ff-179, (4-amino-1-methylimidazo[1,5-a]pyrido[3,4-e]pyrazin-8-yl)((4aS,9aR)-6-fluoro-7-(trifluoromethoxy)-2,3,9,9a-tetrahydroindeno[2,1-b][1,4]oxazin-4(4aH)-yl)methanone]
CC50 (cell viability): < 100 nM

C[C@@H]1CN(C(=O)c2cc3c(cc2F)nc(N)c2cncn23)[C@H]2c3cc(F)c(C(F)(F)F)cc3C[C@H]2O1 (single isomer, unassigned) [Ff-328]
CC50 (cell viability): < 100 nM

CN(C(=O)c1cc2c(cc1F)nc(N)c1cncn12)[C@@H]1COc2cc(C#CC3CC(F)(F)C3)ccc21 [Ff-525, (S)-4-amino-N-(6-((3,3-difluorocyclobutyl)ethynyl)-2,3-dihydrobenzofuran-3-yl)-7-fluoro-N-methylimidazo[1,5-a]quinoxaline-8-carboxamide]
CC50 (cell viability assay): 100 to 1000 nM

Nc1nc2cc(F)c(C(=O)N3CCC4(CCc5ccccc54)C3)cc2n2cncc12 (stereo not shown) [Ff-670, (4-amino-7-fluoroimidazo[1,5-a]quinoxalin-8-yl)(2,3-dihydrospiro[indene-1,3′-pyrrolidin]-1′-yl)methanone]
CC50 (cell viability assay): 100 to 1000 nM

CN(Cc1ccc(C(F)(F)F)cc1F)C(=O)c1ccc2nc(N)c3cncn3c2c1 [Ff-411, 4-amino-N-[[2-fluoro-4-(trifluoromethyl)phenyl]methyl]-N-methyl-imidazo[1,5-a]quinoxaline-8-carboxamide]
CC50 (cell viability assay): 100 to 1000 nM

COc1ccc2c(c1)CO[C@H]1CCN(C(=O)c3cc4c(cc3F)nc(N)c3cncn34)[C@@H]21 (racemic) [Ff-67, Rac-(4-amino-7-fluoroimidazo[1,5-a]quinoxalin-8-yl)((3aS,9bS)-7-methoxy-3,3a,5,9b-tetrahydroisochromeno[4,3-b]pyrrol-1(2H)-yl)methanone]
CC50 (cell viability): 100 to 1000 nM

CC1(N(Cc2ccc(C(F)(F)F)cc2F)C(=O)c2ccc3nc(N)c4cncn4c3c2)COC1 [Ff-270, 4-amino-N-(2-fluoro-4-(trifluoromethyl)benzyl)-N-(3-methyloxetan-3-yl)imidazo[1,5-a]quinoxaline-8-carboxamide]
CC50 (cell viability): 100 to 1000 nM

Nc1nc2cc(F)c(C(=O)N3CCO[C@@H]4Cc5cc(F)ccc5[C@@H]43)cc2n2cncc12 (single isomer, unassigned) [Ff-467]
CC50 (cell viability assay): < 100 nM

CN(C(=O)c1cc2c(cc1F)nc(N)c1cncn12)[C@@H]1COc2c1ccc(Cl)c2Cl (single isomer, unassigned) [Ff-606]
CC50 (cell viability assay): 100 to 1000 nM

Nc1nc2cc(F)c(C(=O)N3CCO[C@@H]4Cc5c(ccc(C(F)(F)F)c5F)[C@@H]43)cc2n2cncc12 [Ff-691, (4-amino-7-fluoroimidazo[1,5-a]quinoxalin-8-yl)((4aS,9aR)-8-fluoro-7-(trifluoromethyl)-2,3,9,9a-tetrahydroindeno[2,1-b][1,4]oxazin-4(4aH)-yl)methanone]
CC50 (cell viability assay): 100 to 1000 nM

Cc1ncc2c(N)nc3cc(F)c(C(=O)N4C[C@@H](C)O[C@@H]5Cc6cc(C(F)(F)F)ccc6[C@@H]54)cc3n12 [Ff-629, (4-amino-7-fluoro-1-methylimidazo[1,5-a]quinoxalin-8-yl)((2R,4aS,9aR)-2-methyl-7-(trifluoromethyl)-2,3,9,9a-tetrahydroindeno[2,1-b][1,4]oxazin-4(4aH)-yl)methanone]
CC50 (cell viability assay): < 100 nM

C[C@@H]1C[C@@H]2OCc3nc(C(F)(F)F)ccc3[C@@H]2N(C(=O)c2cc3c(cc2F)nc(N)c2cncn23)C1 (racemic) [Ff-323, Rac-(4-amino-7-fluoroimidazo[1,5-a]quinoxalin-8-yl)((3R,4aS,10bS)-3-methyl-8-(trifluoromethyl)-2,3,4,4a,6,10b-hexahydro-1H-pyrano[3,2-b:5,4-b′]dipyridin-1-yl)methanone]
CC50 (cell viability): < 100 nM

Cc1nc2cc([C@H]3CC[C@H](C)CN3C(=O)c3ccc4nc(N)c5cnc(C)n5c4c3)ccc2s1 [Ff-127]
CC50 (cell viability): 100 to 1000 nM

CC1(C)CN(C(=O)c2cc3c(cc2F)nc(N)c2cncn23)C(c2ccc(C(F)(F)F)cn2)CO1 (stereo not shown) [Ff-513, (4-amino-7-fluoroimidazo[1,5-a]quinoxalin-8-yl)(2,2-dimethyl-5-(5-(trifluoromethyl)pyridin-2-yl)morpholino)methanone]
CC50 (cell viability assay): < 100 nM

Cc1ncn2c1c(N)nc1cnc(C(=O)N3CC[C@H]4C[C@@H]3c3ccc(C(F)(F)F)cc3O4)cc12 [Fg-64, (4-amino-3-methylimidazo[1,5-a]pyrido[3,4-e]pyrazin-8-yl)((2S,6R)-9-(trifluoromethyl)-3,4-dihydro-2H-2,6-methanobenzo[b][1,5]oxazocin-5(6H)-yl)methanone]
CC50 (cell viability assay): < 100 nM
